# Test results as given in patent publication US7270805B1, “Skin lightening agents, compositions and methods” (Conopco, Inc., priority 2006, dated 2007).
# System: Melanoderm cultures
# Assay: Solvable melanin assay on Melanoderm cultures (3-D skin model)
# Type: cell-based
# Conditions: for OD = 490 nm (melanin content, Solvable melanin assay): Melanoderm cultures fed every other day for 2 weeks, DMSO control 1.292, untreated 1.259
# Method: This experiment was carried out using Melanoderm cultures. Luminescence was measured using a chromameter to assay the degree of melanization of a 3-D skin model.
# Method for Melanoderm Cultures
# Melanoderm cultures were obtained from MatTek Corporation, Ashland, Mass. The Melanoderm was maintained according to the manufacturer's instructions. The basal media used for the maintenance of the Melanoderm cultures was DMEM supplemented with unspecified quantities of Epidermal growth factor, Insulin, Hydrocortisone, and proprietary epidermal differentiation compounds, in addition to anti-fungal and antibiotics.
# For the long term maintenance of the Melanoderms, the basal media was supplemented with both bFGF and a-MSH, compounds which are stimulators of melanocyte growth and melanogenesis. The cultures were fed every other day for a total of 2 weeks—fresh active preparations, prepared in DMSO or culture media, were also applied to the Melanoderms when feeding was performed. Each treatment condition was done in duplicate and digital photographs were taken of the Melanoderm cultures to assess overall pigmentation. As well, microscopic images of the Melanoderms were done to assess the cell viability of the keratinocytes and melanocytes. For further evidence that the treatments were/not cytotoxic, an LDH assay (Promega, Madison, Wis.) was performed on the supernatants from 24 hour post-treatment cultures.
# To prepare tissues for assay:
# After treatment, tissues are usually frozen until completion of the experiment. Thaw tissues, a few at a time and place in D-PBS to remove excess phenol red from the culture medium and residual test article. Remove a single tissue from the insert. Blot dry and place in 1.7 ml. microfuge tube. Repeat for all samples. Add 250 ul Solvable™ (Tissue and Gel Solubilizer 0.5 M—Packard BioScience Co. Catalogue No. 6NE9100 (NEF910)). Close the tube and make sure that the tissue is completely submerged. Incubate at 60° C. overnight along with standards. In the morning, vortex the samples. Sometimes thick tissues will require additional time to complete the solution process. To prepare standard: Dissolve Melanin (Sigma cat. M 8631) in Solvable at 1 mg/ml. The solution may be warmed gently for 15 minutes at 37° C. Store solution in dark. To prepare standard curve: Prepare dilutions from the standard containing 0 ug to 250 ug of melanin in a total of 250 ul Solvable. Incubate dilutions along with samples. To read assay: Cool samples and standards. Centrifuge at 13,000 rpm for 5 minutes to pellet. Fill microwell plate (C-96) with 200 ul each of samples and standards. There is some foaming of samples when pipetted. Blow gently across the samples to break bubbles prior to reading the plate. Read plate at […].
smiles,measurement,setting,value
CCC(=O)n1c(=O)sc2ccccc21 [3-propionylbenzothiazol-2-one],"OD = 490 nm (melanin content, Solvable melanin assay)",125 uM,1.522
same,"OD = 490 nm (melanin content, Solvable melanin assay)",250 uM,1.509
same,"OD = 490 nm (melanin content, Solvable melanin assay)",375 uM,1.377
same,"OD = 490 nm (melanin content, Solvable melanin assay)",500 uM,0.889
same,"OD = 490 nm (melanin content, Solvable melanin assay)",750 uM,0.727
same,"OD = 490 nm (melanin content, Solvable melanin assay)",1000 uM,0.184
same,effect on melanin synthesis,"conclusion from Table 5, Melanoderm cultures",reduce melanin synthesis
